What all share (type): in vivo
Experiment [1] deals with Ctenocephalides felis. As to the kind of experiment: Ctenocephalides felis oral test. Conditions: application rate 100 ppm in citrated cattle blood; unfed adult cat fleas; after 2 days. As to the method: Ctenocephalides felis—Oral Test Solvent: Dimethyl Sulfoxide To produce a suitable active compound formulation, 10 mg of active compound are mixed with 0.5 ml of dimethyl sulfoxide. Dilution with citrated cattle blood gives the desired concentration. About 20 unfed adult cat fleas (Ctenocephalides felis) are placed into a chamber which is closed at the top and bottom with gauze. A metal cylinder whose bottom end is closed with parafilm is placed onto the chamber. The cylinder contains the blood/active compound formulation, which can be imbibed by the fleas through the parafilm membrane. After 2 days, the kill in % is determined. 100% means that all of the fleas have been killed; 0% means that none of the fleas have been killed.

The test system of a further experiment is Musca domestica. Put plainly: Musca domestica test. Conditions: application rate 100 ppm; adult houseflies, sponge with sugar solution; after 2 days. As to the method:
Musca domestica Test Solvent: Dimethyl Sulfoxide To produce a suitable active compound formulation, 10 mg of active compound are mixed with 0.5 ml of dimethyl sulfoxide, and the concentrate is diluted with water to the desired concentration. Vessels containing a sponge treated with sugar solution and the desired concentration of active compound formulation are populated with 10 adult houseflies (Musca domestica). After 2 days, the kill in % is determined. 100% means that all of the flies have been killed; 0% means that none of the flies have been killed.

The subject of experiment [2] is Myzus persicae. Put plainly: Myzus persicae spray test. Conditions: foliar, 120 h, application rate 100 g/ha, Chinese cabbage leaf discs infested by all stages, after 5 days, read-out: efficacy. As to the method: Myzus persicae—Spray Test [table] To produce a suitable active compound formulation, 1 part by weight of active compound is dissolved with the specified parts by weight of solvent and made up to the desired concentration with water containing an emulsifier concentration of 1000 ppm. To produce further test concentrations, the formulation is diluted with emulsifier-containing water. Discs of Chinese cabbage leaves (Brassica pekinensis) infested by all stages of the green peach aphid (Myzus persicae) are sprayed with an active compound formulation of the desired concentration. After 5 days, the efficacy in % is determined. 100% means that all the aphids have been killed; 0% means that no aphids have been killed.

Another experiment relates to Tetranychus urticae. Put plainly: Tetranychus urticae spray test, OP-resistant. Conditions: application rate 100 g/ha, bean leaf discs infested with all stages, after 6 days. As to the method:
Tetranychus urticae—Spray Test, OP-Resistant
(§1) To produce a suitable active compound formulation, 1 part by weight of active compound is dissolved with the specified parts by weight of solvent and made up to the desired concentration with water containing an emulsifier concentration of 1000 ppm. To produce further test concentrations, the formulation is diluted with emulsifier-containing water.
Discs of bean leaves (Phaseolus vulgaris) infested with all stages of the greenhouse red spider mite (Tetranychus urticae) are sprayed with an active compound formulation of the desired concentration.
After 6 days, the efficacy in % is determined. 100% means that all the spider mites have been killed; 0% means that no spider mites have been killed.

The test system of experiment [3] is Ctenocephalides felis. Put plainly: Ctenocephalides felis in vitro contact test with adult cat fleas. Conditions: application rate 5 μg/cm^2 (=500 g of ai/ha); adult cat fleas in coated glass tube; after 48 h; dead or moribund. As to the method:
Ctenocephalides felis—In Vitro Contact Tests with Adult Cat Fleas For the coating of the test tubes, 9 mg of active compound are first dissolved in 1 ml of acetone p.a. and then diluted to the desired concentration with acetone p.a. 250 μl of the solution are distributed homogeneously on the inner walls and the base of a 25 ml glass tube by turning and rocking on an orbital shaker (rocking rotation at 30 rpm for 2 h). With 900 ppm of active compound solution and internal surface area 44.7 cm^2, given homogeneous distribution, an area-based dose of 5 μg/cm^2 is achieved. After the solvent has evaporated off, the tubes are populated with 5-10 adult cat fleas (Ctenocephalides felis), sealed with a perforated plastic lid and incubated in a horizontal position at room temperature and ambient humidity. After 48 h, efficacy is determined. To this end, the tubes are stood upright and the fleas are knocked to the base of the tube. Fleas which remain motionless at the base or move in an uncoordinated manner are considered to be dead or moribund. […] 100% efficacy means that all the fleas were dead or moribund. 0% efficacy means that no fleas were harmed.

The next experiment relates to Lucilia cuprina. As to the kind of experiment: Lucilia cuprina test. Conditions: application rate 100 ppm; L1 larvae on minced horsemeat; after 2 days. As to the method: Lucilia cuprina Test Solvent: Dimethyl Sulfoxide To produce a suitable active compound formulation, 10 mg of active compound are mixed with 0.5 ml of dimethyl sulfoxide, and the concentrate is diluted with water to the desired concentration. About 20 L1 larvae of the Australian sheep blowfly (Lucilia cuprina) are transferred into a test vessel containing minced horsemeat and the active compound preparation of the desired concentration. After 2 days, the kill in % is determined. 100% means that all the larvae have been killed; 0% means that no larvae have been killed.

For experiment [4], the system named is Myzus persicae. As to the kind of experiment: Myzus persicae oral test. Conditions: 120 h, application rate 4 ppm, mixed population of green peach aphids, after 5 days, read-out: efficacy. As to the method: Myzus persicae—Oral Test [table] To produce a suitable active compound formulation, 1 part by weight of active compound is dissolved with the stated parts by weight of solvent and made up to the desired concentration with water. 50 μl of the active compound formulation are transferred into microtitre plates and made up to a final volume of 200 μl with 150 μl of IPL41 insect medium (33%+15% sugar). Subsequently, the plates are sealed with parafilm, which a mixed population of green peach aphids (Myzus persicae) within a second microtitre plate is able to puncture and imbibe the solution. After 5 days, the efficacy in % is determined. 100% means that all the aphids have been killed; 0% means that no aphids have been killed.

The test system of a further experiment is Phaedon cochleariae. As to the kind of experiment: Phaedon cochleariae spray test. Conditions: foliar, 168 h, application rate 100 g/ha, larvae on Chinese cabbage leaf discs, after 7 days, read-out: efficacy. As to the method: Phaedon cochleariae—Spray Test
as §1
Discs of Chinese cabbage leaves (Brassica pekinensis) are sprayed with an active compound formulation of the desired concentration and, after drying, populated with larvae of the mustard beetle (Phaedon cochleariae).
After 7 days, the efficacy in % is determined. 100% means that all the beetle larvae have been killed; 0% means that no beetle larvae have been killed.

For the next experiment, the system named is Spodoptera frugiperda. Put plainly: Spodoptera frugiperda spray test. Conditions: foliar, 168 h, application rate 100 g/ha, caterpillars on maize leaf discs, after 7 days, read-out: efficacy. As to the method: Spodoptera frugiperda—Spray Test [table] To produce a suitable active compound formulation, 1 part by weight of active compound is dissolved with the specified parts by weight of solvent and made up to the desired concentration with water containing an emulsifier concentration of 1000 ppm. To produce further test concentrations, the formulation is diluted with emulsifier-containing water. Leaf discs of maize (Zea mays) are sprayed with an active compound formulation of the desired concentration and, after drying, populated with caterpillars of the fall armyworm (Spodoptera frugiperda). After 7 days, the efficacy in % is determined. 100% means that all the caterpillars have been killed; 0% means that no caterpillar has been killed.

On to `CCS(=O)(=O)c1c(-c2nc3cc(C(F)(F)F)ncc3n2C)sc2cc(C(F)(F)F)sc12` [I-7], for which the “efficacy (kill in %)” value was 95% with Ctenocephalides felis [1] and 80% with Musca domestica. The pest or weed control at 100 g/ha with Myzus persicae [2] was found to be 100%. Moreover, the efficacy in the experiment on Tetranychus urticae was 90%.
For the compound `CCS(=O)(=O)c1c(-c2nc3cc(C(F)(F)F)ncc3n2C)sc2nc(C(F)(F)F)sc12` [I-10], in the experiment with Ctenocephalides felis [3], the efficacy stood at 100%. In addition, the “efficacy (kill in %)” value with Ctenocephalides felis [1] came out at 80%; in the experiment on Lucilia cuprina, 100%; with Musca domestica, 80%. The pest or weed control at 4 ppm with Myzus persicae [4] amounted to 90%. The pest or weed control at 100 g/ha in the experiment on Phaedon cochleariae and in the experiment on Spodoptera frugiperda was 100% each time.
For `CCS(=O)(=O)c1c(-c2nc3cc(C(F)(F)F)ncc3n2C)sc2nc(C(F)(F)F)oc12` [I-12], the “efficacy (kill in %)” value amounted to 80% with Ctenocephalides felis [1] and 85% in the experiment on Musca domestica. Also, the pest or weed control at 4 ppm in the experiment with Myzus persicae [4] was 100%. The pest or weed control at 100 g/ha with Myzus persicae [2], in the experiment on Phaedon cochleariae and in the experiment with Spodoptera frugiperda was 100% in each case. Further, the efficacy in the experiment with Tetranychus urticae came out at 90%.
Regarding `CCS(=O)(=O)c1c(-c2nc3cc(C(F)(F)F)ncc3n2C)sc2c(C(N)=O)csc12` [I-15, 6-(Ethylsulfonyl)-5-[3-methyl-6-(trifluoromethyl)-3H-imidazo[4,5-c]pyridin-2-yl]thieno[3,2-b]thiophene-3-carboxamide], the pest or weed control at 4 ppm in the experiment with Myzus persicae [4] stood at 100%. The pest or weed control at 100 g/ha in the experiment on Myzus persicae [2] came out at 90%. Besides, the efficacy in the experiment with Tetranychus urticae worked out at 90%.

These data come from US20200128830A1, “FUSED BICYCLIC HETEROCYCLE DERIVATIVES AS PESTICIDES” (Bayer Aktiengesellschaft, priority 2017, published 2020).
